Assay results taken from patent US20220143072A1, “Chitosan nitrate for use as a nitric oxide donor (NO donor)” (NO-ceuticals B.V., priority 2019, published 2022).

Assay: Fasting salivary nitrate and nitrite after oral nitrate (Quantofix test strips)
Design: species or system human
Conditions: in vivo
Protocol: Measuring the fasting value of salivary nitrate and nitrite does give a reflection of the plasma value of nitrate and nitrite. The patient took one capsule chitosan nitrate, containing 120 mg NO3− anion, at 11:00 pm. […] An equivalent amount of 120 mg NO3− was taken at 11:00 pm. […] Oligo chitosan is absorbed before reaching the colon and NO3− will then also be absorbed. Quantofix test strips nitrate and nitrite from Macherey-Nagel company, Germany, were used for measurement of NO3− and NO2−. These test strips allow semiquantitative measurement. Reading of the test strips was performed with a Quantofix Relax reader. Other tests were done based on the ingestion of the daily dose in the morning and by measuring the salivary nitrate and salivary nitrite 24 hours later. Two capsules of chitosan nitrate contained an equivalent amount of 240 mg NO3−. Ten measurements were done for both chitosan nitrate and KNO3 salt.

- nitrite values in saliva relative to KNO3: three times higher
Substance: chitosan nitrate
